# Results from US9085555B2, “Complement pathway modulators and uses thereof” (priority 2011, dated 2015).
# Biological target: Factor D (Homo sapiens (Human), UniProt P00746)
# Assay: biochemical
# Type: biochemical
# Conditions: read-out: IC50
# Sequence of Factor D (P00746 26-253): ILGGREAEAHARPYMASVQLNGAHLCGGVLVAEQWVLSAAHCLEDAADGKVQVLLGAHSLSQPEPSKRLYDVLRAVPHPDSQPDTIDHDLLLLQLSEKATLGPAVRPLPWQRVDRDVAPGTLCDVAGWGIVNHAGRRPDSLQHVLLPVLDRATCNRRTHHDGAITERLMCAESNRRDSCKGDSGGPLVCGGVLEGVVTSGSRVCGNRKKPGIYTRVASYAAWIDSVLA
row,SMILES,IC50 [nM]
1,"NC(=O)n1cc(NC(=O)N2CCS[C@H]2C(=O)N[C@H](CO)c2cccc(Cl)c2F)c2ccccc21 [Example 253, (S)-Thiazolidine-2,3-dicarboxylic acid 3-[(1-carbamoyl-1H-indol-3-yl)-amide] 2-{[(S)-1-(3-chloro-2-fluoro-phenyl)-2-hydroxy-ethyl]-amide}]",1070
2,"COC1CN(C(=O)c2cc(Cl)c(F)c(CNC(=O)[C@@H]3C[C@@H](F)CN3C(=O)Nc3cn(C(N)=O)c4ccccc34)c2)C1 [Example 255, (2S,4R)-4-Fluoro-pyrrolidine-1,2-dicarboxylic acid 1-[(1-carbamoyl-1H-indol-3-yl)-amide] 2-[3-chloro-2-fluoro-5-(3-methoxy-azetidine-1-carbonyl)-benzylamide]]",434
3,"N#C[C@@H]1C[C@@H](C(=O)Nc2cccc(OC(F)(F)F)c2)N(C(=O)Nc2cn(C(N)=O)c3ccccc23)C1 [Example 256, (2S,4R)-4-cyano-pyrrolidine-1,2-dicarboxylic acid 1-[(1-carbamoyl-1H-indol-3-yl)-amide]2-[(3-trifluoromethoxy-phenyl)-amide]]",4000
4,"NC(=O)n1cc(NC(=O)N2CC[C@H](O)[C@H]2C(=O)NCc2cccc(Cl)c2)c2ccccc21 [Example 257, (2S,3S)-3-Hydroxy-pyrrolidine-1,2-dicarboxylic acid 1-[(1-carbamoyl-1H-indol-3-yl)-amide] 2-(3-chloro-benzylamide)]",3950
5,"NC(=O)n1cc(NC(=O)N2[C@@H]3C[C@@H]3C[C@H]2C(=O)NCc2ccccc2)c2ccccc21 [Example 258, (1R,3S,5R)-2-Aza-bicyclo[3.1.0]hexane-2,3-dicarboxylic acid 3-benzylamide 2-[(1-carbamoyl-1H-indol-3-yl)-amide]]",78
6,"CC(=O)n1cc(NC(=O)N2C[C@@H](CO)C[C@H]2C(=O)NCc2cccc(Cl)c2F)c2ccccc21 [Example 260, (2S,4S)-4-Hydroxymethyl-pyrrolidine-1,2-dicarboxylic acid 1-[(1-acetyl-1H-indol-3-yl)-amide] 2-(3-chloro-2-fluoro-benzylamide)]",200
7,"NC(=O)n1cc(NC(=O)N2C3CC3C[C@H]2C(=O)NCc2cccc(C(F)(F)F)c2F)c2ccccc21 (stereo partly drawn) [Example 261, (1R,3S,5R)-2-Aza-bicyclo[3.1.0]hexane-2,3-dicarboxylic acid 2-[(1-carbamoyl-1H-indol-3-yl)-amide] 3-(2-fluoro-3-trifluoromethyl-benzylamide)]",75
8,"COc1ccc(F)c(F)c1CNC(=O)[C@@H]1SCCN1C(=O)Nc1cn(C(N)=O)c2ccccc12 [Example 262, (S)-Thiazolidine-2,3-dicarboxylic acid 3-[(1-carbamoyl-1H-indol-3-yl)-amide] 2-(2,3-difluoro-6-methoxy-benzylamide)]",200
9,"NC(=O)n1cc(NC(=O)N2CCS[C@H]2C(=O)NCc2cnc(Cl)s2)c2ccccc21 [Example 263, (S)-Thiazolidine-2,3-dicarboxylic acid 3-[(1-carbamoyl-1H-indol-3-yl)-amide] 2-[(2-chloro-thiazol-5-ylmethyl)-amide]]",400
10,"NC(=O)n1cc(NC(=O)N2CCS[C@H]2C(=O)NCc2cccc(Cl)c2F)c2cc(F)ccc21 [Example 264, (S)-Thiazolidine-2,3-dicarboxylic acid 3-[(1-carbamoyl-5-fluoro-1H-indol-3-yl)-amide] 2-(3-chloro-2-fluoro-benzylamide)]",10
11,"NC(=O)n1cc(NC(=O)N2CCS[C@H]2C(=O)Nc2cccc(OC(F)(F)F)c2)c2ccccc21 [Example 267, (S)-Thiazolidine-2,3-dicarboxylic acid 3-[(1-carbamoyl-1H-indol-3-yl)-amide] 2-[(3-trifluoromethoxy-phenyl)-amide]]",83
12,"C=CCOc1ccc2c(c1)c(NC(=O)N1[C@@H]3C[C@@H]3C[C@H]1C(=O)NCc1cccc(Cl)c1F)cn2C(N)=O [Example 268, (1R,3S,5R)-2-Aza-bicyclo[3.1.0]hexane-2,3-dicarboxylic acid 2-[(5-allyloxy-1-carbamoyl-1H-indol-3-yl)-amide] 3-(3-chloro-2-fluoro-benzylamide)]",8
13,Cc1ccc2c(NC(=O)N3CCC[C@H]3C(=O)Nc3cccc(OC(F)(F)F)c3)cn(C(N)=O)c2c1 [Example 269],1600
14,"CNC(=O)n1cc(NC(=O)N2[C@@H]3C[C@@H]3C[C@H]2C(=O)N[C@H](COC)c2cccc(Cl)c2F)c2ccccc21 [Example 270, (1R,3S,5R)-2-Aza-bicyclo[3.1.0]hexane-2,3-dicarboxylic acid 3-{[(S)-1-(3-chloro-2-fluoro-phenyl)-2-methoxy-ethyl]-amide} 2-[(1-methylcarbamoyl-1H-indol-3-yl)-amide]]",54
15,"CC(=O)n1cc(NC(=O)N2CCC[C@H]2C(=O)Nc2cccc(OC(F)(F)F)c2)c2ccccc21 [Example 271, (S)-Pyrrolidine-1,2-dicarboxylic acid 1-[(1-acetyl-1H-indol-3-yl)-amide] 2-[(3-trifluoromethoxy-phenyl)-amide]]",629
16,"NC(=O)n1cc(NC(=O)N2[C@@H](c3ccccc3)CC[C@H]2C(=O)Nc2cccc(OC(F)(F)F)c2)c2ccccc21 [Example 273, (2S,5R)-5-Phenyl-pyrrolidine-1,2-dicarboxylic acid 1-[(1-carbamoyl-1H-indol-3-yl)-amide] 2-[(3-trifluoromethoxy-phenyl)-amide]]",2260
17,"NC(=O)n1cc(NC(=O)N2C[C@H](F)C[C@H]2C(=O)Nc2cccc(OC(F)(F)F)c2F)c2ccccc21 [Example 274, (2S,4R)-4-Fluoro-pyrrolidine-1,2-dicarboxylic acid 1-[(1-carbamoyl-1H-indol-3-yl)-amide] 2-[(2-fluoro-3-trifluoromethoxy-phenyl)-amide]]",14
18,"CC(=O)n1cc(NC(=O)N2[C@H](C(=O)NCc3cccc(Cl)c3F)C[C@@]3(CO)C[C@@H]23)c2ccccc21 [Example 275, (1R,3S,5S)-5-Hydroxymethyl-2-aza-bicyclo[3.1.0]hexane-2,3-dicarboxylic acid 2-[(1-acetyl-1H-indol-3-yl)-amide] 3-(3-chloro-2-fluoro-benzylamide)]",30
19,"COC(=O)COc1ccc2c(NC(=O)N3[C@@H]4C[C@@H]4C[C@H]3C(=O)Nc3cccc(OC(F)(F)F)c3)cn(C(N)=O)c2c1 [Example 276, (1-Carbamoyl-3-{[(1R,3S,5R)-3-(3-trifluoromethoxy-phenylcarbamoyl)-2-aza-bicyclo[3.1.0]hexane-2-carbonyl]-amino}-1H-indol-6-yloxy)-acetic acid methyl ester]",1310
20,"CN(C)C(=O)c1cc(Cl)c(F)c(CNC(=O)[C@@H]2C[C@@H](F)CN2C(=O)Nc2cn(C(N)=O)c3ccccc23)c1 [Example 277, (2S,4R)-4-Fluoro-pyrrolidine-1,2-dicarboxylic acid 1-[(1-carbamoyl-1H-indol-3-yl)-amide] 2-(3-chloro-5-dimethylcarbamoyl-2-fluoro-benzylamide)]",627
21,"Cn1nc(C(C)(C)C)cc1NC(=O)[C@@H]1CCCN1C(=O)Nc1cn(C(N)=O)c2ccccc12 [Example 279, (S)-Pyrrolidine-1,2-dicarboxylic acid 2-[(5-tert-butyl-2-methyl-2H-pyrazol-3-yl)-amide] 1-[(1-carbamoyl-1H-indol-3-yl)-amide]]",2900
22,"C=CCOc1ccc2c(NC(=O)N3C[C@H](F)C[C@H]3C(=O)NCc3cccc(Cl)c3F)cn(C(N)=O)c2c1 [Example 280, (2S,4R)-4-Fluoro-pyrrolidine-1,2-dicarboxylic acid 1-[(6-allyloxy-1-carbamoyl-1H-indol-3-yl)-amide] 2-(3-chloro-2-fluoro-benzylamide)]",250
23,"CC(=O)n1cc(NC(=O)N2[C@@H]3C[C@@H]3C[C@H]2C(=O)N[C@H](CN(C)C)c2cccc(Cl)c2F)c2ccccc21 [Example 281, (1R,3S,5R)-2-Aza-bicyclo[3.1.0]hexane-2,3-dicarboxylic acid 2-[(1-acetyl-1H-indol-3-yl)-amide] 3-{[(S)-1-(3-chloro-2-fluoro-phenyl)-2-dimethylamino-ethyl]-amide}]",18
24,"CNC(=O)n1cc(NC(=O)N2CCC[C@H]2C(=O)Nc2cccc(OC(F)(F)F)c2)c2ccccc21 [Example 282, (S)-Pyrrolidine-1,2-dicarboxylic acid 1-[(1-methylcarbamoyl-1H-indol-3-yl)-amide] 2-[(3-trifluoromethoxy-phenyl)-amide]]",3680
25,"NC(=O)n1cc(NC(=O)N2CC[C@@H](O)[C@H]2C(=O)NCc2cnc(Cl)s2)c2ccccc21 [Example 283, (2S,3R)-3-Hydroxy-pyrrolidine-1,2-dicarboxylic acid 1-[(1-carbamoyl-1H-indol-3-yl)-amide] 2-[(2-chloro-thiazol-5-ylmethyl)-amide]]",900
26,"CNC(=O)n1cc(NC(=O)N2[C@H](C(=O)NCc3cccc(Cl)c3F)C[C@@]3(COC)C[C@@H]23)c2ccccc21 [Example 284, (1R,3S,5S)-5-Methoxymethyl-2-aza-bicyclo[3.1.0]hexane-2,3-dicarboxylic acid 3-(3-chloro-2-fluoro-benzylamide) 2-[(1-methylcarbamoyl-1H-indol-3-yl)-amide]]",286
27,"CC(C)c1cccc(NC(=O)[C@@H]2C[C@H]3C[C@H]3N2C(=O)Nc2cn(C(N)=O)c3ccccc23)c1 [Example 285, (1R,3S,5R)-2-Aza-bicyclo[3.1.0]hexane-2,3-dicarboxylic acid 2-[(1-carbamoyl-1H-indol-3-yl)-amide] 3-[(3-isopropyl-phenyl)-amide]]",55
28,"NC(=O)n1cc(NC(=O)N2CCC[C@H]2C(=O)Nc2cccc(OC(F)(F)F)c2)c2ccc(Br)cc21 [Example 286, (S)-Pyrrolidine-1,2-dicarboxylic acid 1-[(6-bromo-1-carbamoyl-1H-indol-3-yl)-amide] 2-[(3-trifluoromethoxy-phenyl)-amide]]",2650
29,"CNC(=O)n1cc(NC(=O)N2[C@@H]3C[C@@H]3C[C@H]2C(=O)N[C@H](CO)c2cccc(Cl)c2F)c2ccccc21 [Example 287, (1R,3S,5R)-2-Azabicyclo[3.1.0]hexane-2,3-dicarboxylic acid 3-{[(S)-1-(3-chloro-2-fluoro-phenyl)-2-hydroxy-ethyl]-amide}2-[(1-methylcarbamoyl-1H-indol-3-yl)-amide]]",112
